Measurements: patent US8337444B2, “Measurement of cardiac output and blood volume by non-invasive detection of indicator dilution for hemodialysis” (Alfred E. Mann Institute for Biomedical Engineering at the …, priority 2001, dated 2012)

Key:
[1] = test system: blood proteins; details: protein-bound ICG not cleared by dialysis; cited from earlier work
[2] = cited from earlier work
[3] = Blood ICG concentration after high dose intravenous injection (calibration sequence); type: in vivo, New Zealand White rabbits; details: rabbit, 1 mg ICG intravenously, metabolized by the liver
Text: A. A sample method and system for measuring cardiac output and blood volume. Experiments have been performed in New Zealand White rabbits (2.8-3.5 Kg) anesthetized with halothane and artificially ventilated with an oxygen-enriched gas mixture (Fio2˜0.4) to achieve a Sao2 above 99% and an end-tidal CO2 between 28 and 32 mm Hg (FIG. 4). The left femoral artery was cannulated for measurement of the arterial blood pressure throughout the procedure. A small catheter was positioned in the left brachial vein to inject the indicator, ICG. Body temperature was maintained with a heat lamp.
Calibration of the transcutaneous fluorescence intensity measured at the level of the animals' ear as a function of ICG concentration in blood was performed as follows. […]
As the liver metabolizes ICG, the blood ICG concentration decreases back to 0 in about 20 minutes. […] The fluorescence intensity of the blood in the cuvette was converted to a measurement of concentration using the known standard curve of fluorescence intensity versus ICG concentration established for the cuvette. ICG fluorescence was measured at the level of the ear at the exact time of the blood sample withdrawal. […]
For the range of concentrations used in these studies, ICG concentration and transcutaneous fluorescence were linearly related. […]

time for blood ICG concentration to decrease back to 0 [3]: about 20 minutes
SMILES: CC1(C)C(/C=C/C=C/C=C/C=C2\N(CCCCS(=O)(=O)O)c3ccc4ccccc4c3C2(C)C)=[N+](CCCCS(=O)(=O)[O-])c2ccc3ccccc3c21 [ICG, indocyanine green]
fraction of ICG injected in the bloodstream that binds to blood proteins [1]: more than 95%
stability in aqueous solution [2]: breaks down quickly
